This data set can be described thus: in vitro. As to conditions: human, hela cells, % viability.
With `COc1ccc(CCNC(=O)N2CCN(CCc3ccccc3)CC2)cc1OC` [CBK158915], the viability (as a rule, a read-out of living cells in per cent, often relative to untreated cells) at 28.5 h, 10 µM turned out to be 102%. As to `O=C(NCc1ccc(Cl)cc1)N1CCN(CCc2ccccc2)CC1` [CBK158922], the viability at 28.5 h, 10 µM came to 90.7%.

For `O=C1CCCN1CCCNC(=O)N1CCN(CCc2ccccc2)CC1` [CBK158932], the viability at 28.5 h, 10 µM came to 91%.

With `CC(NC(=O)N1CCN(CCc2ccccc2)CC1)c1ccccc1` (stereo not drawn) [CBK158935], the viability at 28.5 h, 10 µM was determined as 85.1%. Take `O=C(Nc1cccnc1)N1CCN(CCc2ccccc2)CC1` [CBK158937]: the viability at 28.5 h, 10 µM amounted to 95.4%. With `CCN(CC)CCN(C(=O)Nc1ccc(C(N)=O)cc1)C(C)c1ccc(OC)c(OC)c1` (stereo not drawn) [CBK158962], the viability at 28.5 h, 10 µM came to 108%. On to `COc1ccc(C(C)N(CCN2CCOCC2)C(=O)NCc2cccnc2)cc1OC` (stereo not drawn) [CBK158986], for which the viability at 28.5 h, 10 µM is 114%. Take `CCN(CC)CCN(Cc1ccc2c(c1)OCO2)C(=O)Nc1cccc(NC(C)=O)c1` [CBK159042]: the viability at 28.5 h, 10 µM came out at 108%. Under `CCN(CC)CCN(Cc1ccc2c(c1)OCO2)C(=O)Nc1ccc(C)cc1` [CBK159059] stands 89.3%; under `CC(C)CN(Cc1ccc2c(c1)OCO2)C(=O)NCc1ccc(Cl)c(Cl)c1` [CBK159069], 95.3%. The value for `CC(C)CN(Cc1ccc2c(c1)OCO2)C(=O)NCc1ccc2c(c1)OCO2` [CBK159071] was 96.4%; that for `COc1ccc(CN(CCCN2CCOCC2)C(=O)NCCCN2CCCC2=O)cc1OC` [CBK159180] was 93.2%.

On to `CCOC(=O)N1CCC(NC(=O)N(CCCN(C)C)Cc2ccc3c(c2)OCO3)CC1` [CBK159231], for which the viability at 28.5 h, 10 µM was 91%. `COc1ccc(CN(CCN(C)C)C(=O)NCc2ccc(-c3ccccc3)cc2)cc1OC` [CBK159293]: the viability at 28.5 h, 10 µM was 91.4%.

In the case of `COc1ccc(CN(CCN2CCOCC2)C(=O)Nc2cccnc2)cc1OC` [CBK159379], the viability at 28.5 h, 10 µM came to 93.2%. `CCN(CC)c1ccc(CN(CCCN(C)C)C(=O)NCc2ccc(F)cc2)cc1` [CBK159410]: the viability at 28.5 h, 10 µM stood at 89.9%. On to `CSCCCNC(=O)N(Cc1cccnc1)Cc1ccc2c(c1)OCO2` [CBK159426], for which the viability at 28.5 h, 10 µM is 92.7%. Under `CCc1c(C)nc2ccc(NC(C)=O)cc2c1SCCC(=O)O` [CBK159465T] stands 98.7%.

For `O=C(O)Cc1nc(-c2ccccc2)c(-c2ccccc2)s1` [CBK159470], the viability at 28.5 h, 10 µM came out at 99.4%. Under `CCCS(=O)(=O)Nc1cccc2[nH]ccc12` [CBK159488] stands 97.5%. Consider `O=S(=O)(Cc1ccccc1)Nc1cccc2[nH]ccc12` [CBK159490], for which the viability at 28.5 h, 10 µM worked out at 76.6%. Under `CN(C)S(=O)(=O)Nc1cccc2cc[nH]c12` [CBK159505] stands 92.8%; under `CS(=O)(=O)Nc1cccc2cc[nH]c12` [CBK159509], 110%; under `O=S(=O)(Nc1ccc2c(ccn2Cc2ccccc2)c1)c1ccc(S(=O)(=O)c2ccccc2)s1` [CBK159533], 114%. Consider `O=[N+]([O-])c1ccc(S(=O)(=O)Nc2cccc3[nH]ccc23)cc1` [CBK159550], for which the viability at 28.5 h, 10 µM turned out to be 87.1%.

For `CCc1c(C)nc2c(N3CCOC3=O)cccc2c1SCCC(=O)O` [CBK159595T], the viability at 28.5 h, 10 µM worked out at 91.7%. The value for `O=C(Nc1cccc2[nH]ccc12)c1ccc(Cl)cc1` [CBK159632] was 91.7%; that for `O=C(Nc1cccc2[nH]ccc12)c1cccc(F)c1Cl` [CBK159638] was 76.4%. Under `O=C(Nc1cccc2[nH]ccc12)c1ccc(Br)cc1Cl` [CBK159643] stands 78.7%. As for `CC(C(=O)Nc1cccc2[nH]ccc12)c1ccc(Cl)cc1` (stereo not drawn) [CBK159647], the viability at 28.5 h, 10 µM came out at 107%.

With `O=C(Cc1cc(F)cc(F)c1F)Nc1cccc2[nH]ccc12` [CBK159650], the viability at 28.5 h, 10 µM is 89%. Under `O=C(COc1ccc(F)cc1)Nc1cccc2[nH]ccc12` [CBK159653] stands 86%; under `CSCCC(=O)Nc1cccc2[nH]ccc12` [CBK159655], 105%; under `O=C(Nc1cccc2[nH]ccc12)c1ccc2c(c1)OCCO2` [CBK159657], 85.7%.

For the compound `O=C(Nc1cccc2[nH]ccc12)c1ccoc1` [CBK159659], the viability at 28.5 h, 10 µM was 94.8%. Regarding `CN(C)CCCC(=O)Nc1cccc2[nH]ccc12` [CBK159660], the viability at 28.5 h, 10 µM was 99.9%. Under `O=C(Cc1c(Cl)cccc1Cl)Nc1ccc2[nH]ccc2c1` [CBK159664] stands 113%; under `O=C(Nc1ccc2[nH]ccc2c1)c1c(F)ccc(Cl)c1F` [CBK159673], 78.6%; under `Cc1ccc(C(=O)Nc2ccc3[nH]ccc3c2)cc1Cl` [CBK159677], 85.5%. With `COc1ccc(C(=O)Nc2ccc3[nH]ccc3c2)cc1Cl` [CBK159681], the viability at 28.5 h, 10 µM was determined as 94%. With `O=C(Nc1ccc2[nH]ccc2c1)c1ccc(F)c(F)c1` [CBK159683], the viability at 28.5 h, 10 µM was determined as 88.3%. Regarding `O=C(Cc1cc(F)cc(F)c1F)Nc1ccc2[nH]ccc2c1` [CBK159686], the viability at 28.5 h, 10 µM came out at 87.4%. Under `O=C(Nc1ccc2[nH]ccc2c1)c1ccc(OC(F)(F)F)cc1` [CBK159688] stands 61.5%; under `Cc1cc(CC(=O)Nc2ccc3[nH]ccc3c2)on1` [CBK159690], 103%; under `COc1cc(C(=O)Nc2ccc3[nH]ccc3c2)cc(OC)c1OC` [CBK159696], 92.9%. Under `CSCCC(=O)Nc1ccc2c(ccn2Cc2ccccc2)c1` [CBK159732] stands 69.4%. The value for `CN(C)CCCC(=O)Nc1ccc2c(ccn2Cc2ccccc2)c1` [CBK159740] was 91.2%; that for `O=C(Cc1ccc(Cl)cc1Cl)NCCc1c[nH]c2ccc(Cl)cc12` [CBK159744] was 104%. With `O=C(NCCc1c[nH]c2ccc(Cl)cc12)c1ccc(Cl)cc1Br` [CBK159755], the viability at 28.5 h, 10 µM turned out to be 96.3%.

In the case of `O=C(NCCc1c[nH]c2ccc(Cl)cc12)c1cc(F)c(Cl)cc1F` [CBK159763], the viability at 28.5 h, 10 µM stood at 93.6%.

For the compound `Cc1cc(Br)ccc1C(=O)NCCc1c[nH]c2ccc(Cl)cc12` [CBK159771], the viability at 28.5 h, 10 µM turned out to be 91%.

Take `Cc1cc(CC(=O)NCCc2c[nH]c3ccc(Cl)cc23)on1` [CBK159774]: the viability at 28.5 h, 10 µM came out at 86.4%.

Turning to `CSCCC(=O)NCCc1c[nH]c2ccc(Cl)cc12` [CBK159775], the viability at 28.5 h, 10 µM is 95.6%.

As for `O=C(NCCc1c[nH]c2ccc(Cl)cc12)c1cccnc1` [CBK159778], the viability at 28.5 h, 10 µM was found to be 106%.

For `O=C(Nc1ccc2ncccc2c1)c1ccc(F)cc1Cl` [CBK159796], the viability at 28.5 h, 10 µM worked out at 91.1%. The value for `O=C(Nc1ccc2ncccc2c1)c1cccc(F)c1Cl` [CBK159800] was 85.9%; that for `Cc1cc(C(=O)Nc2ccc3ncccc3c2)ccc1Cl` [CBK159804] was 88.8%; that for `O=C(Nc1ccc2ncccc2c1)c1ccc(F)c(F)c1` [CBK159810] was 78.5%.

Take `O=C(Nc1ccc2ncccc2c1)c1ccoc1` [CBK159823]: the viability at 28.5 h, 10 µM turned out to be 95.8%. Under `CN1CCC[C@H]1C(=O)Nc1ccc2ncccc2c1` [CBK159825] stands 95.7%.

The values above are taken from publication PMC12040169 (PLOS Biology, 2025).
